Patent US7671242B2 (priority 2005, dated 2010)
Values after ≈ are worked out from the molar mass of the structure shown. Read-outs that look alike come from different tables or passages of the source.

Key:
[1] = cited from earlier work
[2] = cited from earlier work; remark: listed apart in the source
[3] = type: physicochemical; conditions: lipoxidase treatment at 37° C., hexane:ethyl ether extraction, HPLC
[4] = cited from earlier work; remark: listed apart in the source

Compound | Solubility ([1]; Ethyl acetate) | Solubility ([1]; Methyl tert butyl ether) | Solubility in nonpolar and polar solvents ([1]; nonpolar and polar solvents) | Solubility in water ([1]; water) | Stability ([2]; light and oxygen) | Stability ([2]; stored at −20° C. under a nitrogen atmosphere) | initial lutein recovered after enzyme treatment [3] | Lipid and water solubility [4]
CC1=C[C@H](O)CC(C)(C)[C@H]1/C=C/C(C)=C/C=C/C(C)=C/C=C/C=C(C)/C=C/C=C(C)/C=C/C1=C(C)C[C@@H](O)CC1(C)C [Lutein, 3,3′-dihydroxy-alpha-carotene] | 800 µg/mL (≈ 1410 µM) | 2000 µg/mL (≈ 3520 µM) | soluble in both nonpolar and polar solvents | Insoluble | Unstable to light and oxygen; | Stable if stored at −20 °C under a nitrogen | Approximately 88% | 
aflatoxin B1 [AFB1] |  |  |  |  |  |  |  | both lipid and water soluble
